# Compound: Cc1cnc(CNC(=O)c2c(=O)c3ccc(N4CCCN(C)CC4)nc3n3c2sc2ccccc23)cn1 [CX-5461]
# Assay: relative viability (nuclei count vs DMSO), 5 days (fraction); higher = more cells survive
# Conditions: 0.01 µM
# In short: (§1)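 After an overnight hold at 37 °C, lung cancer cell lines in 1536-well plates were pinned with five library-drug doses (not always all listed), each √10 from the next, on vehicle-anchored plates. The cells stayed 5 days without fresh medium, then a one-step fix, permeabilisation and Hoechst stain preceded 4× imaging and MetaXpress nuclear counts. A plate passed only with control CV under 25% and at least one doubling. Viability is the median, over plates, of treated-well nuclei relative to vehicle-well nuclei.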
row,Cell Line,relative viability
1,201T,0.985
2,NCI-H1915,1.06
3,HCC-827,1.02
4,LXF-289,0.988
5,NCI-H23,1.05
6,NCI-H1299,0.998
7,NCI-H647,1.08
8,CAL-12T,1.02
9,NCI-H1651,0.956
10,EPLC-272H,0.994
11,NCI-H2228,1.03
12,NCI-H1792,1.01
13,NCI-H1355,1.03
14,NCI-H3122,0.977
15,NCI-H1437,1.03
16,NCI-H1755,1.09
17,NCI-H2023,1
18,HCC-15,1.01
19,NCI-H1944,1
20,PC-14,1.08
21,EKVX,1.11
22,LC-2-ad,0.981
23,NCI-H1563,0.963
24,NCI-H2170,1.03
25,NCI-H1975,1.02
26,RERF-LC-KJ,0.96
27,ABC-1,1.04
28,SK-MES-1,1.1
29,NCI-H650,0.919
30,PC-3 [JPC-3],1.03

# Same assay, conditions: 0.03162 µM
row,Cell Line,relative viability
1,201T,1
2,NCI-H1915,1.13
3,HCC-827,1.02
4,LXF-289,1.01
5,NCI-H23,1.04
6,NCI-H1299,0.99
7,NCI-H647,0.935
8,CAL-12T,0.994
9,NCI-H1651,0.871
10,EPLC-272H,0.886
11,NCI-H2228,1.01
12,NCI-H1792,0.894
13,NCI-H1355,1.06
14,NCI-H3122,1.02
15,NCI-H1437,0.97
16,NCI-H1755,1.03
17,NCI-H2023,0.903
18,HCC-15,1.08
19,NCI-H1944,1.14
20,PC-14,1.04
21,EKVX,1.05
22,LC-2-ad,1.02
23,NCI-H1563,0.954
24,NCI-H2170,1.02
25,NCI-H1975,0.974
26,RERF-LC-KJ,1.05
27,ABC-1,0.785
28,SK-MES-1,1.09
29,NCI-H650,1.02
30,PC-3 [JPC-3],1.05

# Same assay, conditions: 0.1 µM
row,Cell Line,relative viability
1,201T,0.986
2,NCI-H1915,0.996
3,HCC-827,1.03
4,LXF-289,1.06
5,NCI-H23,0.856
6,NCI-H1299,1.02
7,NCI-H647,0.991
8,CAL-12T,0.947
9,NCI-H1651,0.57
10,EPLC-272H,0.901
11,NCI-H2228,0.948
12,NCI-H1792,0.904
13,NCI-H1355,0.96
14,NCI-H3122,0.965
15,NCI-H1437,0.894
16,NCI-H1755,1.01
17,HCC-15,0.978
18,NCI-H1944,0.994
19,PC-14,0.956
20,EKVX,1.05
21,LC-2-ad,0.955
22,NCI-H1563,0.806
23,NCI-H2170,1.08
24,NCI-H1975,0.905
25,RERF-LC-KJ,0.943
26,ABC-1,0.712
27,SK-MES-1,1.04
28,NCI-H650,0.788
29,PC-3 [JPC-3],1.11

# Same assay, conditions: 0.3162 µM
row,Cell Line,relative viability
1,201T,0.985
2,NCI-H1915,0.79
3,HCC-827,1.01
4,LXF-289,0.87
5,NCI-H23,0.773
6,NCI-H1299,1.01
7,NCI-H647,0.822
8,CAL-12T,0.936
9,NCI-H1651,0.959
10,NCI-H2228,0.855
11,NCI-H1792,1.05
12,NCI-H1355,0.521
13,NCI-H3122,1.01
14,NCI-H1437,1.03
15,NCI-H1755,1.01
16,NCI-H2023,0.648
17,HCC-15,0.833
18,NCI-H1944,0.358
19,PC-14,1.01
20,EKVX,0.677
21,LC-2-ad,0.978
22,NCI-H1563,0.939
23,NCI-H2170,1
24,NCI-H1975,0.961
25,RERF-LC-KJ,0.946
26,ABC-1,0.309
27,SK-MES-1,1.06
28,NCI-H650,0.879
29,PC-3 [JPC-3],1.01

# Same assay, conditions: 1 µM
row,Cell Line,relative viability
1,201T,0.936
2,NCI-H1915,0.899
3,HCC-827,0.933
4,LXF-289,0.745
5,NCI-H23,0.544
6,NCI-H1299,0.944
7,NCI-H647,0.403
8,CAL-12T,0.662
9,NCI-H1651,0.371
10,EPLC-272H,0.922
11,NCI-H2228,0.205
12,NCI-H1792,0.502
13,NCI-H1355,0.671
14,NCI-H3122,0.831
15,NCI-H1437,0.877
16,NCI-H1755,0.901
17,NCI-H2023,0.0929
18,HCC-15,0.689
19,NCI-H1944,0.318
20,PC-14,0.599
21,EKVX,0.915
22,LC-2-ad,0.749
23,NCI-H1563,0.64
24,NCI-H2170,1.02
25,NCI-H1975,0.714
26,RERF-LC-KJ,0.879
27,ABC-1,0.568
28,SK-MES-1,0.724
29,NCI-H650,0.768
30,PC-3 [JPC-3],0.974

# Compound: O=C(Nc1cc(C(F)(F)F)cc(C(F)(F)F)c1)c1cc(Cl)ccc1O [IMD-0354]
# Assay: as above
# Conditions: 0.04 µM
# In short: as §1
row,Cell Line,relative viability
1,201T,1.1
2,NCI-H1915,0.824
3,HCC-827,1.06
4,LXF-289,1.02
5,NCI-H23,1.14
6,NCI-H1299,0.85
7,NCI-H647,1.04
8,CAL-12T,1.07
9,NCI-H1651,1.04
10,EPLC-272H,1.21
11,NCI-H2228,1.07
12,NCI-H1792,0.969
13,NCI-H1355,1.12
14,NCI-H3122,1.12
15,NCI-H1437,1.12
16,NCI-H1755,0.989
17,NCI-H2023,1.11
18,HCC-15,0.949
19,NCI-H1944,0.866
20,PC-14,1.18
21,EKVX,1
22,LC-2-ad,0.948
23,NCI-H1563,0.979
24,NCI-H2170,0.956
25,NCI-H1975,0.949
26,RERF-LC-KJ,1.09
27,ABC-1,1.07
28,SK-MES-1,1.16
29,NCI-H650,1.13
30,PC-3 [JPC-3],1.06

# Same assay, conditions: 0.1265 µM
row,Cell Line,relative viability
1,201T,1.15
2,NCI-H1915,1.02
3,HCC-827,1.05
4,LXF-289,1.05
5,NCI-H23,0.942
6,NCI-H1299,1.02
7,NCI-H647,1.06
8,CAL-12T,0.922
9,NCI-H1651,0.983
10,EPLC-272H,1.08
11,NCI-H2228,0.888
12,NCI-H1792,0.847
13,NCI-H1355,0.946
14,NCI-H3122,1.06
15,NCI-H1437,0.941
16,NCI-H1755,1.02
17,NCI-H2023,0.986
18,HCC-15,0.935
19,NCI-H1944,0.981
20,PC-14,1.05
21,EKVX,0.972
22,LC-2-ad,0.976
23,NCI-H1563,0.974
24,NCI-H2170,1.02
25,NCI-H1975,0.986
26,RERF-LC-KJ,0.992
27,ABC-1,1.05
28,SK-MES-1,0.996
29,NCI-H650,0.954
30,PC-3 [JPC-3],1.03

# Same assay, conditions: 0.4 µM
row,Cell Line,relative viability
1,201T,0.563
2,NCI-H1915,0.675
3,HCC-827,0.736
4,LXF-289,0.86
5,NCI-H23,0.518
6,NCI-H1299,0.638
7,NCI-H647,0.405
8,CAL-12T,0.545
9,NCI-H1651,0.577
10,EPLC-272H,0.717
11,NCI-H2228,0.721
12,NCI-H1792,0.553
13,NCI-H1355,0.716
14,NCI-H3122,0.723
15,NCI-H1437,0.626
16,NCI-H1755,0.76
17,NCI-H2023,0.573
18,HCC-15,0.663
19,NCI-H1944,0.653
20,PC-14,0.52
21,EKVX,0.589
22,LC-2-ad,0.579
23,NCI-H1563,0.856
24,NCI-H2170,0.777
25,NCI-H1975,0.625
26,RERF-LC-KJ,0.635
27,ABC-1,0.498
28,SK-MES-1,0.645
29,NCI-H650,0.594
30,PC-3 [JPC-3],0.829

# Same assay, conditions: 1.265 µM
row,Cell Line,relative viability
1,201T,0.725
2,NCI-H1915,0.316
3,HCC-827,0.439
4,LXF-289,0.337
5,NCI-H23,0.195
6,NCI-H1299,0.221
7,NCI-H647,0.172
8,CAL-12T,0.251
9,NCI-H1651,0.402
10,EPLC-272H,0.442
11,NCI-H2228,0.266
12,NCI-H1792,0.412
13,NCI-H1355,0.368
14,NCI-H3122,0.313
15,NCI-H1437,0.32
16,NCI-H1755,0.454
17,NCI-H2023,0.128
18,HCC-15,0.16
19,NCI-H1944,0.74
20,PC-14,0.317
21,EKVX,0.915
22,LC-2-ad,0.193
23,NCI-H1563,0.472
24,NCI-H2170,0.806
25,NCI-H1975,0.211
26,RERF-LC-KJ,0.384
27,ABC-1,0.222
28,SK-MES-1,0.463
29,NCI-H650,0.555
30,PC-3 [JPC-3],0.341

# Same assay, conditions: 4 µM
row,Cell Line,relative viability
1,201T,0.324
2,NCI-H1915,0.165
3,HCC-827,0.258
4,LXF-289,0.207
5,NCI-H23,0.2
6,NCI-H1299,0.179
7,NCI-H647,0.11
8,CAL-12T,0.162
9,NCI-H1651,0.139
10,EPLC-272H,0.16
11,NCI-H2228,0.294
12,NCI-H1792,0.434
13,NCI-H1355,0.221
14,NCI-H3122,0.151
15,NCI-H1437,0.244
16,NCI-H1755,0.26
17,NCI-H2023,0.0998
18,HCC-15,0.15
19,NCI-H1944,0.156
20,PC-14,0.129
21,EKVX,0.358
22,LC-2-ad,0.17
23,NCI-H1563,0.402
24,NCI-H2170,0.226
25,NCI-H1975,0.212

# Source: the supplement of paper PMC10307832
